Starred links: 1 amine or outer side, 2 acyl side, 3 side chain; linkers in the order of their positions; H or OH if unused. Positions of bridges follow the written chain, without caps; N, C: chain ends. Non-standard residues stand in square brackets, D forms with d. Residues, ends and D or L forms follow the SMILES beside them. Groups on a side chain read outwards from the residue. ξ: configuration not given here. *: point of attachment. Ala(1-CH2CO2H-4-piperidyl) = N[C@@H](CC1CCN(CC(=O)O)CC1)C(=O)O; Ala(piperidin-4-yl) = O=C([C@H](CC1CCN([*:3])CC1)N[*:1])[*:2]; DOTA = O=C(O)CN1CCN(CC(=O)O)CCN(CC(=O)*)CCN(CC(=O)O)CC1; Trp(5-F) = N[C@@H](Cc1c[nH]c2ccc(F)cc12)C(=O)O; X1 = C[C@@H](c1ccccc1)[C@H](N[*:1])C(=O)[*:2]; γGlu = O=C(O)[C@H](CCC(=O)[*:2])N[*:1]; 1Nal = N[C@@H](Cc1cccc2ccccc12)C(=O)O; Ala(4-THP) = N[C@@H](CC1CCOCC1)C(=O)O; Val(3-OH) = CC(C)(O)[C@H](N)C(=O)O; 4Pal = N[C@@H](Cc1ccncc1)C(=O)O; Tle = CC(C)(C)[C@H](N)C(=O)O; hLeu = CC(C)CC[C@H](N)C(=O)O; NMeS = CN[C@@H](CO)C(=O)O; Nle = CCCC[C@H](N)C(=O)O; ξP = O=C(O)C1CCCN1

This assay addresses T1, human 4lg B7-H3 (Homo sapiens, UniProt Q5ZPR3).
T1 sequence (Q5ZPR3 29-534): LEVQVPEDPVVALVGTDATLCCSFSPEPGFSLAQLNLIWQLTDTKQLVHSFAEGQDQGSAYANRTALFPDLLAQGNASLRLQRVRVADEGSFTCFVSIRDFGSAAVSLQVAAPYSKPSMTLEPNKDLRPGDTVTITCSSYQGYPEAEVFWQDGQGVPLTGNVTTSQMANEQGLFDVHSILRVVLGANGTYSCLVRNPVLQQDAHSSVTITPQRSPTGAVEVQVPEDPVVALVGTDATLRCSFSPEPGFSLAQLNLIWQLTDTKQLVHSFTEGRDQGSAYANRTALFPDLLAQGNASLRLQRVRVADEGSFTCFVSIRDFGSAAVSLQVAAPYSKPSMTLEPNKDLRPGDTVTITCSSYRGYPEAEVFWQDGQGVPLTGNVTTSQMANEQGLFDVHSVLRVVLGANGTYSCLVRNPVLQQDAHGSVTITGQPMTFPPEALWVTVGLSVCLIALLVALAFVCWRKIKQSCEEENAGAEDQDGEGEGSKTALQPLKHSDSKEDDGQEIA
As to the kind of experiment: Affinity determination by surface plasmon resonance (SPR) to 4Ig B7-H3. Particulars: 4Ig B7-H3.

[1] abbreviates: SPR KD—37° C., 37° C. flow cell temperature.
The mark [2] stands for this setting: SPR KD—25° C., 25° C. flow cell temperature.

Take `CC(=O)N[C@@H](CCC(C)C)C(=O)N[C@@H](Cc1ccc(O)cc1)C(=O)N[C@H]1CSSC[C@@H](C(=O)N[C@@H](Cc2c[nH]c3ccc(F)cc23)C(=O)N[C@@H](Cc2ccccc2)C(=O)N[C@H](C(=O)N[C@H](CCCCNC(=O)CC[C@H](NC(=O)CN2CCN(CC(=O)O)CCN(CC(=O)O)CCN(CC(=O)O)CC2)C(=O)O)C(N)=O)C(C)(C)O)NC(=O)[C@H](Cc2ccc(O)cc2)NC(=O)[C@H](C(C)C)NC(=O)[C@H](CC(=O)O)NC(=O)[C@H](CC2CCOCC2)NC(=O)[C@H](CC2CCNCC2)NC(=O)CNC(=O)[C@H](C(C)(C)C)NC1=O` [compound 452, Ac-hLeu-Y-C-Tbg-G-PipAla-ThpA-D-V-Y-C-5FW-F-hydroxyVal-dLys(gE-DOTA)-CONH2] (Ac-[hLeu]YC[Tle]G[Ala(piperidin-4-yl)][Ala(4-THP)]DVYC[Trp(5-F)]F[Val(3-OH)][dK]([γGlu-DOTA])-NH2; disulfide 3-11): the Kd under setting [1] was less than 1 nM.

Consider `COc1ccc(C[C@@H]2NC(=O)[C@H](C(C)C)NC(=O)[C@H](CC(=O)O)NC(=O)[C@H](Cc3ccncc3)NC(=O)[C@H](CCCCNC(=O)CN3CCN(CC(=O)O)CCN(CC(=O)O)CCN(CC(=O)O)CC3)NC(=O)CNC(=O)[C@H](C(C)C)NC(=O)[C@@H](NC(=O)[C@H](Cc3ccc(O)cc3)NC(=O)[C@H](CCC(C)C)NC(C)=O)CSSC[C@@H](C(=O)N[C@@H](Cc3cccc4ccccc34)C(=O)N[C@@H](Cc3ccccc3)C(=O)N3CCCC3C(N)=O)NC2=O)cc1` (stereo partly drawn) [compound 309, Ac-hLeu-Y-C-V-G-Lys(DOTA)-4PyA-D-V-OMeTyr-C-1Nal-F-Pro-CONH2] (Ac-[hLeu]YCVGK(DOTA)[4Pal]DVY(Me)C[1Nal]F[ξP]-NH2; disulfide 3-11), for which, under setting [2], the Kd is 1 to 10 nM.

`CCCC[C@H](NC(C)=O)C(=O)N[C@@H](Cc1ccc(O)cc1)C(=O)N[C@H]1CSSC[C@@H](C(=O)N[C@@H](Cc2c[nH]c3ccccc23)C(=O)N[C@@H](Cc2ccccc2)C(=O)N[C@@H](CCC(N)=O)C(=O)O)NC(=O)[C@H](Cc2ccc(O)cc2)NC(=O)[C@H](C(C)C)NC(=O)[C@H](CC(=O)O)NC(=O)[C@H](Cc2ccc(O)cc2)NC(=O)[C@H](CCCCN)NC(=O)CNC(=O)[C@H](C(C)C)NC1=O` [compound 35, Ac-Nle-Y-C-V-G-K-Y-D-V-Y-C-W-F-gE-CONH2] gave a Kd under setting [2] of 10 to 100 nM.

Turning to `CC(=O)N[C@@H](CCC(C)C)C(=O)N[C@@H](Cc1ccc(O)cc1)C(=O)N[C@H]1CSSC[C@@H](C(=O)N[C@@H](Cc2c[nH]c3ccc(F)cc23)C(=O)N[C@H](C(=O)N[C@H](C(=O)N[C@H](CCCCNC(=O)CN2CCN(CC(=O)O)CCN(CC(=O)O)CCN(CC(=O)O)CC2)C(N)=O)C(C)(C)O)[C@@H](C)c2ccccc2)NC(=O)[C@H](Cc2ccc(O)cc2)NC(=O)[C@H](C(C)C)NC(=O)[C@H](CC(=O)O)NC(=O)[C@H](CC2CCOCC2)NC(=O)[C@H](CC2CCNCC2)NC(=O)CNC(=O)[C@H](C(C)(C)C)NC1=O` [compound 502, Ac-hLeu-Y-C-Tbg-G-PipAla-ThpA-D-V-Y-C-5FW-[(2S, 3S)beta-Me-Phe]-hydroxyVal-dLys(DOTA)-CONH2] (Ac-[hLeu]YC[Tle]G[Ala(piperidin-4-yl)][Ala(4-THP)]DVYC[Trp(5-F)][X1][Val(3-OH)][dK](DOTA)-NH2; disulfide 3-11), the Kd under setting [1] was less than 1 nM.

In turn, `CC(=O)N[C@@H](CCC(C)C)C(=O)N[C@@H](Cc1ccc(O)cc1)C(=O)N[C@H]1CSSC[C@@H](C(=O)N[C@@H](Cc2c[nH]c3ccccc23)C(=O)N[C@@H](Cc2ccccc2)C(=O)N[C@H](C(=O)N[C@H](CCCCNC(=O)CN2CCN(CC(=O)O)CCN(CC(=O)O)CCN(CC(=O)O)CC2)C(N)=O)[C@@H](C)O)NC(=O)[C@H](Cc2ccc(O)cc2)NC(=O)[C@H](C(C)(C)O)NC(=O)[C@H](CC(=O)O)NC(=O)[C@H](Cc2ccc(O)cc2)NC(=O)[C@H](CCCCN)NC(=O)CNC(=O)[C@H](C(C)C)NC1=O` [compound 127, Ac-hLeu-Y-C-V-G-K-Y-D-hydroVal-Y-C-W-F-Thr-dLys(DOTA)-CONH2] (Ac-[hLeu]YCVGKYD[Val(3-OH)]YCWFT[dK](DOTA)-NH2; disulfide 3-11) gave a Kd under setting [2] of 100 to 300 nM.

As for `CC(=O)N[C@@H](CCC(C)C)C(=O)N[C@@H](Cc1ccc(O)cc1)C(=O)N[C@H]1CSSC[C@@H](C(=O)N[C@@H](Cc2c[nH]c3ccc(F)cc23)C(=O)N[C@@H](Cc2ccccc2)C(=O)N(C)[C@@H](CO)C(=O)N[C@H](CCCCNC(=O)CN2CCN(CC(=O)O)CCN(CC(=O)O)CCN(CC(=O)O)CC2)C(N)=O)NC(=O)[C@H](Cc2ccc(O)cc2)NC(=O)[C@H](C(C)C)NC(=O)[C@H](CC(=O)O)NC(=O)[C@H](Cc2ccc(O)cc2)NC(=O)[C@H](CCCCN)NC(=O)CNC(=O)[C@H](C(C)C)NC1=O` [compound 148, Ac-hLeu-Y-C-V-G-K-Y-D-V-Y-C-5FW-F-NMeSer-dLys(DOTA)-CONH2] (Ac-[hLeu]YCVGKYDVYC[Trp(5-F)]F[NMeS][dK](DOTA)-NH2; disulfide 3-11), the Kd under setting [2] is less than 1 nM.

As for `CC(=O)N[C@@H](CCC(C)C)C(=O)N[C@@H](Cc1ccc(O)cc1)C(=O)N[C@H]1CSSC[C@@H](C(=O)N[C@@H](Cc2c[nH]c3ccc(F)cc23)C(=O)N[C@@H](Cc2ccccc2)C(=O)N[C@H](C(=O)O)[C@@H](C)O)NC(=O)[C@H](Cc2ccc(O)cc2)NC(=O)[C@H](C(C)C)NC(=O)[C@H](CC(=O)O)NC(=O)[C@H](CC2CCN(CC(=O)O)CC2)NC(=O)[C@H](CCCCNC(=O)CN2CCN(CC(=O)O)CCN(CC(=O)O)CCN(CC(=O)O)CC2)NC(=O)CNC(=O)[C@H](C(C)(C)C)NC1=O` [compound 326, Ac-hLeu-Y-C-Tbg-G-Lys(DOTA)-Pip(CH2COOH)Ala-D-V-Y-C-5FW-F-Thr-COOH] (Ac-[hLeu]YC[Tle]GK(DOTA)[Ala(1-CH2CO2H-4-piperidyl)]DVYC[Trp(5-F)]FT-OH; disulfide 3-11), under setting [1], the Kd fell in the range of 10 to 100 nM.

`CC(=O)N[C@@H](CCC(C)C)C(=O)N[C@@H](Cc1ccc(O)cc1)C(=O)N[C@H]1CSSC[C@@H](C(=O)N[C@@H](Cc2c[nH]c3ccc(F)cc23)C(=O)N[C@@H](Cc2ccccc2)C(=O)N[C@H](C(N)=O)C(C)(C)O)NC(=O)[C@H](Cc2ccc(O)cc2)NC(=O)[C@H](C(C)C)NC(=O)[C@H](CC(=O)O)NC(=O)[C@H](CC2CCNCC2)NC(=O)[C@H](CCCCNC(=O)CN2CCN(CC(=O)O)CCN(CC(=O)O)CCN(CC(=O)O)CC2)NC(=O)CNC(=O)[C@H](C(C)C)NC1=O` [compound 202, Ac-hLeu-Y-C-V-G-Lys(DOTA)-PipAla-D-V-Y-C-5FW-F-hydroxyVal-CONH2] (Ac-[hLeu]YCVGK(DOTA)[Ala(piperidin-4-yl)]DVYC[Trp(5-F)]F[Val(3-OH)]-NH2; disulfide 3-11) displayed a Kd under setting [2] of 1 to 10 nM.

Take `CC(=O)N[C@@H](CCC(C)C)C(=O)N[C@@H](Cc1ccc(O)cc1)C(=O)N[C@H]1CSSC[C@@H](C(=O)N[C@@H](Cc2c[nH]c3ccc(F)cc23)C(=O)N[C@@H](Cc2ccccc2)C(=O)N2CCC[C@H]2C(N)=O)NC(=O)[C@H](Cc2ccc(O)cc2)NC(=O)[C@H](C(C)C)NC(=O)[C@H](CC(=O)O)NC(=O)[C@H](CC2CCOCC2)NC(=O)[C@H](CCCCNC(=O)CN2CCN(CC(=O)O)CCN(CC(=O)O)CCN(CC(=O)O)CC2)NC(=O)CNC(=O)[C@H](C(C)(C)C)NC1=O` [compound 273, Ac-hLeu-Y-C-Tbg-G-Lys(DOTA)-ThpA-D-V-Y-C-5FW-F-Pro-CONH2] (Ac-[hLeu]YC[Tle]GK(DOTA)[Ala(4-THP)]DVYC[Trp(5-F)]FP-NH2; disulfide 3-11): the Kd under setting [2] fell in the range of 10 to 100 nM.

For the molecule `CCCC[C@H](NC(C)=O)C(=O)N[C@@H](Cc1ccc(O)cc1)C(=O)N[C@H]1CSSC[C@@H](C(=O)N[C@@H](Cc2c[nH]c3ccccc23)C(=O)N[C@@H](Cc2ccccc2)C(=O)N[C@H](C(=O)N[C@H](CCCCNC(=O)CN2CCN(CC(=O)O)CCN(CC(=O)O)CCN(CC(=O)O)CC2)C(N)=O)[C@@H](C)O)NC(=O)[C@H](Cc2ccc(O)cc2)NC(=O)[C@H](C(C)(C)C)NC(=O)[C@H](CC(=O)O)NC(=O)[C@H](Cc2ccc(O)cc2)NC(=O)[C@H](CCCCN)NC(=O)CNC(=O)[C@H](C(C)C)NC1=O` [compound 62, Ac-Nle-Y-C-V-G-K-Y-D-Tbg-Y-C-W-F-Thr-dLys(DOTA)-CONH2] (Ac-[Nle]YCVGKYD[Tle]YCWFT[dK](DOTA)-NH2; disulfide 3-11), the Kd under setting [2] fell in the range of 100 to 300 nM.

The molecule `CC(=O)N[C@@H](CCC(C)C)C(=O)N[C@@H](Cc1ccc(O)cc1)C(=O)N[C@H]1CSSC[C@@H](C(=O)N[C@@H](Cc2c[nH]c3ccc(F)cc23)C(=O)N[C@@H](Cc2ccccc2)C(=O)N[C@H](C(=O)N[C@H](CO)C(=O)O)C(C)(C)O)NC(=O)[C@H](Cc2ccc(O)cc2)NC(=O)[C@H](C(C)C)NC(=O)[C@H](CC(=O)O)NC(=O)[C@H](CC2CCN(C(=O)CN3CCN(CC(=O)O)CCN(CC(=O)O)CCN(CC(=O)O)CC3)CC2)NC(=O)[C@H](CC2CCNCC2)NC(=O)CNC(=O)[C@H](C(C)(C)C)NC1=O` [compound 449, Ac-hLeu-Y-C-Tbg-G-PipAla-Pip(DOTA)Ala-D-V-Y-C-5FW-F-hydroxyVal-dSer-COOH] (Ac-[hLeu]YC[Tle]G[Ala(piperidin-4-yl)][Ala(piperidin-4-yl)](DOTA)DVYC[Trp(5-F)]F[Val(3-OH)][dS]-OH; disulfide 3-11) displayed a Kd under setting [1] of less than 1 nM.

(Values after US20250296959A1, “B7-H3 TARGETING PEPTIDES AND CONSTRUCTS THEREOF” (Mariana Oncology Inc., priority 2024, published 2025).)
